Data reported in ChEMBL document CHEMBL1133610, “GRID/CPCA: a new computational tool to design selective ligands” (J Med Chem, 2000).

Tests used:
Coagulation factor X [1] = biological target: T1, Coagulation factor X (Homo sapiens, UniProt P00742); assay: Inhibitory activity against human Coagulation factor Xa
Prothrombin = Prothrombin (Homo sapiens, UniProt P00734); assay: Inhibitory activity against human thrombin
Coagulation factor X [2] = biological target: T1, Coagulation factor X; assay: Inhibitory Activity against Coagulation factor X
Serine protease 1 = Serine protease 1 (Homo sapiens, UniProt P07477); assay: Inhibitory Activity against Trypsin
Chain of Serine protease 1 (P07477 whole entry): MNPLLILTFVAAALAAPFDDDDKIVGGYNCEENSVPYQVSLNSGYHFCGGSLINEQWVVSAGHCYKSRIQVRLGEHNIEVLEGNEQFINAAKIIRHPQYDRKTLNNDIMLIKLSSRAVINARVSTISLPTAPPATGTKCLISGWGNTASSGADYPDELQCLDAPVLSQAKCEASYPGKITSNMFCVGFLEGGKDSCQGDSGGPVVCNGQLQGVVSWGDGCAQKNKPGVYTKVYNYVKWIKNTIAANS

T1 sequence (P00742 41-179 limits assumed): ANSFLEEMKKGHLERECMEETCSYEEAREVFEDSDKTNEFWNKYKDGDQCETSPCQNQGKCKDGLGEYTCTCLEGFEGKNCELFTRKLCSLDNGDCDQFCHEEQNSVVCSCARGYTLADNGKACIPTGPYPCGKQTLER
T1 sequence (P00742 235-488 limits assumed): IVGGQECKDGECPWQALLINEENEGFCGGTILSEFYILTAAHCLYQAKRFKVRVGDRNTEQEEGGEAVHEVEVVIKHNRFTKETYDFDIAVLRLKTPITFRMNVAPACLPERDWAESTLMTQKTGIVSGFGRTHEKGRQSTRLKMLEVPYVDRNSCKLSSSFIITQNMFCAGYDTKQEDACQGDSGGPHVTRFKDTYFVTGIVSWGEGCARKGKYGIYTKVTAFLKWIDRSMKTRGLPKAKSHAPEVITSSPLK

N=C(N)c1cccc(-c2cccc([C@H](CCCNc3ccncc3)C(=O)O)c2)c1
IC50 (Coagulation factor X [1]): 0.00272 µM
IC50 (Prothrombin): > 100 µM

CC1CNc2c(cccc2S(=O)(=O)N[C@@H](CCCN=C(N)N)C(=O)N2CC[C@@H](C)CC2C(=O)O)C1 (some centres undefined)
Ki (Coagulation factor X [2]): 210 µM
Ki (Serine protease 1): 5 µM
